The NIST ThermoML archive (doi:10.1016/j.tca.2014.10.002)
Where “and” joins values, the source holds several entries; their conditions need not be identical. Equal entries are not always repeated. ± gives the expanded uncertainty stated by the source.

Experiments:
[1] = Molar enthalpy of transition or fusion; conditions: Crystal; DSC
[2] = Crystal; DTA
[3] = molar heat capacity at constant pressure; conditions: 101.33 kPa, Large sample (1 g) DSC

OC1CCC1 [cyclobutanol]
Conditions | Molar enthalpy of transition or fusion [kcal/mol] | Normal melting temperature [°C]
[1] | 1.89 ± 0.0884 | –
[2] | – | -45.61 ± 0.39

[3], Liquid
Conditions | molar heat capacity at constant pressure
258.09 K | 132.4 ± 2.3 J/K/mol and 132.7 ± 2.3 J/K/mol
263.2 K | 134.8 ± 2.3 J/K/mol and 134.7 ± 2.3 J/K/mol
268.3 K | 137 ± 2.4 J/K/mol and 137.2 ± 2.4 J/K/mol
273.41 K | 139.4 ± 2.4 J/K/mol
278.51 K | 141.8 ± 2.5 J/K/mol
283.62 K | 144.6 ± 2.5 J/K/mol and 144.4 ± 2.5 J/K/mol
288.72 K | 147.4 ± 2.6 J/K/mol and 147.3 ± 2.6 J/K/mol
293.83 K | 150.5 ± 2.6 J/K/mol and 150.2 ± 2.6 J/K/mol
298.93 K | 153.7 ± 2.7 J/K/mol and 153.8 ± 2.7 J/K/mol
304.04 K | 157 ± 2.7 J/K/mol and 157.1 ± 2.7 J/K/mol
309.14 K | 160.5 ± 2.8 J/K/mol
314.25 K | 164.1 ± 2.8 J/K/mol and 164 ± 2.8 J/K/mol
319.35 K | 168 ± 2.9 J/K/mol and 167.9 ± 2.9 J/K/mol
324.46 K | 171.9 ± 3 J/K/mol and 171.6 ± 3 J/K/mol
329.57 K | 175.4 ± 3 J/K/mol
334.67 K | 179.4 ± 3.1 J/K/mol
339.77 K | 183.6 ± 3.2 J/K/mol and 183.1 ± 3.2 J/K/mol
344.88 K | 187.5 ± 3.2 J/K/mol and 187 ± 3.2 J/K/mol
349.98 K | 191.6 ± 3.3 J/K/mol
355.09 K | 195.6 ± 3.4 J/K/mol

OC1CCCCC1 [cyclohexanol]
[3]
Conditions | molar heat capacity at constant pressure
261.42 K, Crystal | 162.6 ± 2.8 J/K/mol
261.48 K, Crystal | 162.8 ± 2.8 J/K/mol
264 K, Crystal | 164.5 ± 2.9 J/K/mol and 164.7 ± 2.9 J/K/mol
267 K, Crystal | 166.8 ± 2.9 J/K/mol and 167 ± 2.9 J/K/mol
270 K, Crystal | 169.1 ± 2.9 J/K/mol and 169.4 ± 2.9 J/K/mol
273 K, Crystal | 171.7 ± 3 J/K/mol and 172 ± 3 J/K/mol
276 K, Crystal | 174.5 ± 3 J/K/mol and 174.9 ± 3 J/K/mol
279 K, Crystal | 177.4 ± 3.1 J/K/mol and 177.9 ± 3.1 J/K/mol
282 K, Crystal | 180.8 ± 3.1 J/K/mol and 181.4 ± 3.1 J/K/mol
284.5 K, Crystal | 184.9 ± 3.2 J/K/mol
284.95 K, Crystal | 184.8 ± 3.2 J/K/mol
305.05 K, Liquid | 218.3 ± 3.8 J/K/mol
305.18 K, Liquid | 218.6 ± 3.8 J/K/mol
310 K, Liquid | 223.8 ± 3.9 J/K/mol and 224 ± 3.9 J/K/mol
315 K, Liquid | 229.6 ± 4 J/K/mol and 229.7 ± 4 J/K/mol
320 K, Liquid | 235.5 ± 4.1 J/K/mol and 235.3 ± 4.1 J/K/mol
325 K, Liquid | 241.3 ± 4.2 J/K/mol and 241.1 ± 4.2 J/K/mol
330 K, Liquid | 246.7 ± 4.3 J/K/mol and 246.8 ± 4.3 J/K/mol
335 K, Liquid | 252 ± 4.4 J/K/mol and 252.2 ± 4.4 J/K/mol
340 K, Liquid | 257.4 ± 4.5 J/K/mol and 257.6 ± 4.5 J/K/mol
345 K, Liquid | 262.8 ± 4.6 J/K/mol and 263 ± 4.6 J/K/mol
350 K, Liquid | 268 ± 4.6 J/K/mol
355 K, Liquid | 272.3 ± 4.7 J/K/mol and 272.5 ± 4.7 J/K/mol
357.82 K, Liquid | 274.7 ± 4.8 J/K/mol
357.94 K, Liquid | 274.7 ± 4.8 J/K/mol
